Data: patent publication US20260184692A1, “HETEROCYCLIC COMPOUNDS, PREPARATION METHODS AND USES THEREOF” (InventisBio Co., Ltd., priority 2022, published 2026)

Tests used:
[1] = test system: OVCAR3 Cells; assay: OVCAR3 Cell Viability Assay (CellTiter-Glo); format: cell-based; details: Homo sapiens, OVCAR-3, 144 h, 6 days incubation, read-out: OVCAR3 CTG IC50
In short: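 Cells seeded at 2000/well in RPMI1640 + 20% FBS + insulin, treated next day with serially diluted compound for 6 days at 37 °C, 5% CO2 (0.5% DMSO final). Viability by CellTiter-Glo luminescence; inhibition normalised to DMSO and blank controls, IC50 from four-parameter fit.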

[2] = test system: HCC1806 Cells; assay: HCC1806 Cell Viability Assay (CellTiter-Glo); format: cell-based; details: Homo sapiens, 144 h, 6 days incubation, read-out: HCC1806 CTG IC50
Experimental: HCC1806 Cells (ATCC, Cat #CRL-2335) were seeded at a density of 500 cells/well in a 96-well clear bottom plate (Greiner, Cat #655098) in 100 μL of complete media (RPMI1640+10% FBS). One hundred microliter of complete media was added into the blank wells (column 1) for low control. Cells were allowed to adhere to the plate overnight in the incubator at 37° C., 5% CO2. On the following day, 0.5 μL of serially-diluted compounds were added to the cells (columns 2-10) and incubated for 6 days at 37° C., 5% CO2 (final 0.5% DMSO concentration); 0.5 μL of DMSO solution was added into the wells (column 11) for high control. Cell viability was detected according to the CellTiter-Glo Luminescent Cell Viability Assay Kit (Promega, Cat #G7573). Luminescence was recorded on the Tecan Spark plate reader. Inhibition rate (IR) of the tested compounds was determined by the following formula: IR (%)=(1−(RLUcompound−RLUlow control)/(RLUhigh control−RLUlow control))×100%. The IC50 value was calculated using the non-linear regression equation: Y=Bottom+(Top−Bottom)/(1+10^((Log IC50−X)×HillSlope)), where X is Log of compound concentration, Y is percent inhibition (IR (%)), Top and Bottom are plateaus in same units as Y.

[3] = Mouse PK Assay; format: in vivo; details: plasma, male BALB/c mouse
[4] = molecular target: T1, PXR (Homo sapiens, UniProt O75469); assay: In Vitro PXR Activation Study (DPX2 cells); format: cell-based; details: concentration 30 uM, 48 h treatment
T1 construct: expressed in transfected cells; host or cells: DPX2 cells
T1 sequence (O75469 1-434): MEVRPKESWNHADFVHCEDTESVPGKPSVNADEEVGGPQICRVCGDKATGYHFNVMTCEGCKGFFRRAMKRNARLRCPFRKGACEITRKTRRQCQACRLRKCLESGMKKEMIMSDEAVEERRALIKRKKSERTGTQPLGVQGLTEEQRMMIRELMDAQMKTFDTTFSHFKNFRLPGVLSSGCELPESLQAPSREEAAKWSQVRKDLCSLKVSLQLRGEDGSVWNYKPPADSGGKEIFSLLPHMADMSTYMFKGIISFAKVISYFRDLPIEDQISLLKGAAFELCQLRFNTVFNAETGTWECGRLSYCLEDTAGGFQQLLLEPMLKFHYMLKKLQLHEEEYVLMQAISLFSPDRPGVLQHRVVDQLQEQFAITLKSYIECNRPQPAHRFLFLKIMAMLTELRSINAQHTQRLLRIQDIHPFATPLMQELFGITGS
Experimental: Prepared the culture medium for DPX2 cells using DPX2 culturing medium supplemented with 10% FBS. Cultivated DPX2 cells in T-75 flasks in a cell culture incubator set at 37 C, 5% CO2, 95% relative humidity. Allowed cells to reach 80-90% confluence before detaching and splitting. Rinsed cultivated cells in T-75 flasks with 5 mL PBS. Aspirate off, add 1.5 mL trypsin, and incubated at 37° C. for approximately 5 minutes or until the cells detach and float. Inactivated trypsin by adding excess serum containing medium. Removed cell suspension to a conical tube and pellet cells by centrifugation at 150×g for 5 minutes. Resuspended cells in seeding medium at a density of 3.2×10^5 cells/mL. Transferred 25 μL to each well of 384-well cell culture plate. Placed plate(s) in incubator and incubate at 37° C. for 24 hours.
Prepared stock solutions of test compounds and inducers in DMSO. Final concentration of DMSO in the treatment group should be 0.1%. Removed the plates from the incubator and directly add 25 μL of the negative control, inducers, or test article solutions. Returned plates to the incubator for 48 hours. […] After 48 h of treatment, the cultures were ready for the determination of quantitation of PXR activation.
The fold-activation mRNA level was determined by the equation: […]

[5] = Human Plasma Protein Binding Assay (dialysis); format: in vitro ADME; details: 1 μM compound, dialysis 6 hr at 37 °C
Experimental: The plasma protein binding of compounds in human plasma was determined using a dialysis method. The dialysis membrane strips were prepared by soaking them in ultra-pure water for about 1 hr at room temperature, followed by separation and soaking in ethanol:water (20:80 v:v) for about 20 min, and a final rinse with ultra-pure water. Prior to use, the membranes were rinsed and soaked for another 20 min in ultra-pure water.
The blank plasma samples were thawed, centrifuged and verified its pH values. Only the plasma with pH between 7.0-8.0 was used in the experiment. The final concentration of compound in the spiked plasma is 1 μM, with final DMSO<=1%. All samples were prepared in triplicates. The time zero (T0) samples was used for determining the recovery of the compound of interest after dialysis. It was prepared in the same way as other dialysis samples except it was stored at 2-8° C. before LC-MS/MS analysis.
The other spiked plasma samples were loaded onto the dialysis device and incubated at and 37±1° C. with 5% CO2 for 6 hr. At the end of the dialysis, aliquots of samples from the plasma and buffer sides of the dialysis device were taken and processed for LC-MS/MS analysis.
The % Unbound, % Bound, and % Recovery of the compounds were calculated from the peak area ratios of the analyte and internal standard in the plasma and buffer samples as shown in the following equations:
[formula] [formula] [formula] • where [F] is the peak area ratio of analyte/internal standard on the buffer (receiver) side of the membrane; [T] is the peak area ratio of analyte/internal standard on the plasma (donor) side of the membrane; [T0] is the peak area ratio of analyte/internal standard in the plasma sample at time zero.

[6] = molecular target: T2, P450 2C9 (Homo sapiens, UniProt P11712); assay: In Vitro Cytochrome P450 Inhibition Study; format: in vitro ADME; details: human liver microsomes (HLM), test compound 0.137 μM to 10 μM, 10 min at 37 °C
T2 construct: incubation with known industry-accepted CYP450 substrates, test articles and microsomes (HLM); from tissue; host or cells: liver microsomes (HLM)
T2 sequence (P11712 whole entry): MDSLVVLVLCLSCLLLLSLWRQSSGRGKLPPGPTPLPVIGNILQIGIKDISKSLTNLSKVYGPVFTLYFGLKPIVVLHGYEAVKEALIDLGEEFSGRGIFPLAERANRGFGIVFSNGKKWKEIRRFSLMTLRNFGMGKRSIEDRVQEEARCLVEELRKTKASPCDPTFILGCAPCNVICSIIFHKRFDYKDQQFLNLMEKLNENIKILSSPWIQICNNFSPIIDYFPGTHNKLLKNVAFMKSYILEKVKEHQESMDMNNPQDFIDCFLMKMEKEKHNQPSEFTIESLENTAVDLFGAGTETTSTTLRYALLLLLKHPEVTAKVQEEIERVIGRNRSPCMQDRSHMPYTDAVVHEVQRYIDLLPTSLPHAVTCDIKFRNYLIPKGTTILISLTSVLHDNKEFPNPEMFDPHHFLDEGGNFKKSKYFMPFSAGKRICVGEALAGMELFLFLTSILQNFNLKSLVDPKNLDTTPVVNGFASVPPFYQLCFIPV
Experimental: CYP inhibition was evaluated by monitoring corresponding metabolite decrease after incubation with known industry-accepted CYP450 substrates, test articles and microsomes (HLM).
Eight reaction wells with 30 μL of a solution containing 100 mM potassium phosphate, pH 7.4 and 1:3 serial dilutions of the test compound were prepared along with eight wells of 1:3 serial dilutions of Sulfaphenazole (a positive control inhibitor). The assay plates were pre-warmed after 15 μL of probe substrate was added into appropriate wells. Then the reactions were initiated by adding 15 μL of a pre-warmed 8 mM NADPH solution resulting in a final NADPH concentration of 2 mM. The concentrations of test compound ranged from 0.137 μM to 10 μM. A zero time-point control reaction was prepared by adding 135 μL acetonitrile (ACN) containing tolbutamide (200 ng/mL) as internal standard (IS) to 30 μL. of the reaction solution to inactivate the enzymes before adding the probe substrate. A control reaction with no inhibitor was also prepared. After a suitable incubation at 37° C., 10 min, the reactions were terminated by the addition of 135 μL ACN containing IS. The reactions were prepared and analyzed for the metabolite forms of the probe substrate using LC-MS/MS.

Row | IC50 [1] [nM] | IC50 [2] [nM] | MRT ([3]; IV) [h] | half-life ([3]; single oral dose 5 mg/kg, read-out: PO T1/2 (converted)) [h] | Induction Fold [4] [x] | fraction unbound at 6 hr, 1 μM [5] | IC50 [6] [nM] | SMILES
1 | < 200 | < 200 | 6.2 | 3.7 | 1.8 |  |  | N#Cc1ccc(N2CC3(CCC4(CC4)CC3)c3cc(NS(=O)(=O)CCO)ccc3C2=O)nc1N1CCC(F)(F)CC1 [Compound 27]
2 | < 200 |  |  |  | 1.7 | 0.001 | > 10000 | COc1ccc(N2CC3(CCC4(CC4)CC3)c3cc(NS(=O)(=O)CCO)ccc3C2=O)nc1N1CCC(F)(F)CC1 [Compound 133]
